Key:
[1] = Urine catching pad urine addition test, urine odor intensity; set-up: species or system human; conditions: 30° C.
Description: (§1) Sensory evaluation of odor was performed by six panelists, the evaluation was based on a six-level odor intensity indication method in which the odor intensity was indicated with an evaluation score of 0 to 5. In the evaluation score, “0” indicates no odor, “1” indicates odor which can be slightly perceived (detection threshold), “2” indicates odor which can be perceived to be urine odor but is weak (perception threshold), “3” indicates odor which can be easily perceived to be urine odor, “4” indicates strong urine odor, and “5” indicates extreme urine odor. The odor intensity was determined at an interval of 0.5.
Specifically, the urine catching pad was prepared by replacing only a water-absorbent polymer in the commercially available urine catching pad “Relief urine catching pad safe absorption (Anshin-Kyusyu)” (manufactured by Kao Corporation) with a water-absorbent polymer wherein the β-glucuronidase inhibitor of the present invention was added. The added amount of the inhibitor to the water-absorbent polymer was 1 wt. % with respect to the water-absorbent polymer, and was equivalent to 1.5 g/m^2 with respect to the urine catching pad.
A urine addition test was performed by using test pieces having dimensions of 19 cm by 7 cm being cut out from the urine catching pad, and using a test piece containing no β-glucuronidase inhibitor as a blank. The test was performed as follows: 30 g of human urine (a mixture of urine from five humans) were added to these test pieces cut out from the urine catching pad, and the urine odor intensity after 1 hour, after 24 hours, and after 48 hours under preservation at 30° C. was evaluated by five panelists based on the six-level odor intensity indication method as described in the item (2) of Reference Example 2.

[2] = target: T1, β-glucuronidase (Escherichia coli, UniProt P05804); experiment: Suppression of production of volatile compound from urine with added β-glucuronidase (GC-MS); format: biochemical; conditions: 0.01 wt %; human urine plus enzyme, 25° C., 22 hours
T1 construct: purchased Sigma-Aldrich Corporation
T1 sequence (P05804 whole entry): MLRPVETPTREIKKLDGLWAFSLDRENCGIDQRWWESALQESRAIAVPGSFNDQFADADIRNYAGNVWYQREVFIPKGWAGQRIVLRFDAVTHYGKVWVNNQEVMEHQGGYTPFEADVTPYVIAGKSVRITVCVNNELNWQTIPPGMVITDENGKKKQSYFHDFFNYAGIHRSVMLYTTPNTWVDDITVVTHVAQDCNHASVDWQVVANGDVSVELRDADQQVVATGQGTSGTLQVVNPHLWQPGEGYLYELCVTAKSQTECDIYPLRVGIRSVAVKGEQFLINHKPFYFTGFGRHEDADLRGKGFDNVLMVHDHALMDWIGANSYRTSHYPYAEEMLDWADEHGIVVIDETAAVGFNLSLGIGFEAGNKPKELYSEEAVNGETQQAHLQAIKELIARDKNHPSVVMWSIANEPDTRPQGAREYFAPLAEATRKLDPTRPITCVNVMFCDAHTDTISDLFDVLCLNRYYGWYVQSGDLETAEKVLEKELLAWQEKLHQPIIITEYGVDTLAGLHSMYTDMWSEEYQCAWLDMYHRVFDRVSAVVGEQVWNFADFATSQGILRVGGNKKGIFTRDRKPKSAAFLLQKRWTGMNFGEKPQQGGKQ
Description: 9.9 mL of a human urine sample (a mixture of urine from five humans), from which microorganisms were filtered with a 0.2-μm filter (Millex GV manufactured by Millipore Corporation) were added to a bottle which had been preliminarily subjected to γ-ray sterilization immediately after the collection, and subsequently 0.1 mL of an Escherichia coli-derived β-glucuronidase Type VII-A (purchased from Sigma-Aldrich Corporation) aqueous solution adjusted to 250 units/mL was added and mixed. The mixture was incubated in a thermostat bath at 25° C. and allowed to react for 22 hours. An initial urine sample prepared by adding 0.1 mL of sterilized ion exchanged water as substitution of the enzyme solution, was similarly incubated in a thermostat bath for 22 hours.
9.9 mL of a human urine sample (a mixture of urine from five humans) which had been subjected to a microbe-removing operation with a 0.2-μm filter immediately after the collection and 10 μL of a 10 wt % 8-cyclohexadecen-1-one DPG solution were added to a bottle γ-ray sterilized in advance, and subsequently 0.1 mL of a […] aqueous solution adjusted to 250 units/mL was added and mixed. The mixture was incubated in a thermostat bath at 25° C. and allowed to react for 22 hours. The concentration of 8-cyclohexadecen-1-one in the reaction solution was 0.01 wt %. Further, a product prepared by adding 0.1 mL of an enzyme solution to 9.9 mL of the microbe-removed urine sample was used as a control, a product prepared by adding 0.1 mL of ion exchanged water to 9.9 mL of the microbe-removed urine sample was used as a blank, and the respective products were allowed to react for 22 hours in the same manner.
After the completion of the reaction, to 9 mL of the reaction solution, a benzyl benzoate ethanol solution was added as an internal standard. The mixture was extracted twice with 10 mL of diethyl ether. The extracted solutions were combined and dried over anhydrous magnesium sulfate. After drying, a solid was separated by filtration, and the filtrate was concentrated with a rotary evaporator to prepare a sample for measurement.
Measurement was performed with a gas chromatograph mass spectrometer. The production amount of the volatile compound detected was calculated as a peak area ratio with respect to an internal standard. The production suppression rate for each of volatile components was determined by using the obtained value in accordance with the following equation. Production amount of control=Peak area ratio of control—Peak area ratio of blank Production amount of sample=Peak area ratio of sample−Peak area ratio of blank Production suppression rate (%)=[(Production amount of control −Production amount of sample)/Production amount of control]×100

[3] = target: T1, β-glucuronidase; experiment: Suppression of generation of urine odor in enzyme-added urine, sensory evaluation; conditions: 0.01 wt %; human urine plus enzyme, 25° C., 2 hours; six panelists
Description: as §1
360 μL of a human urine sample (a mixture of urine from five humans), which had been subjected to a microbe-removing operation with a 0.2-μm filter immediately after the collection, and […] of a 10 wt % 8-cyclohexadecen-1-one DPG solution were added to a bottle γ-ray sterilized in advance, and subsequently 40 μL of a β-glucuronidase aqueous solution adjusted to 20 units/mL was added and mixed. The mixture was incubated in a thermostat bath at 25° C. and allowed to react for 2 hours. The concentration of 8-cyclohexadecen-1-one in the reaction solution was 0.01 wt %. […]

[4] = six-level score 0 to 5, average of five panelists, inhibitor 1 wt. % of water-absorbent polymer, 30 g human urine

Compound: O=C1CCCCCCC=CCCCCCCC1 [8-Cyclohexadecen-1-one, 8-cyclohexadecen-1-one]
- Suppression of the increase of urine odor in urine catching pad compared to the blank (result in words) ([1]; after 24 or 48 hours as stated): even after 48 hours, was confirmed
- Urine odor intensity After 1 hour [1, 4]: 1.3
- Urine odor intensity After 24 hours [1, 4]: 1.5
- Urine odor intensity After 48 hours [1, 4]: 1.9
- Production of phenol-based compounds and indole from urine (result in words) [2]: suppressed the production of all of phenol-based compounds and indole
- Production suppression rate (%) of 1,3-Benzenediol [2]: 100%
- Production suppression rate (%) of 1,4-Benzenediol [2]: 73%
- Production suppression rate (%) of 2-Methoxy-1,3-benzenediol [2]: 73%
- Production suppression rate (%) of 4-Vinyl-2-methoxyphenol [2]: 55%
- Production suppression rate (%) of 4-Vinylphenol [2]: 57%
- Production suppression rate (%) of Indole [2]: 57%
- Production suppression rate (%) of Phenol [2]: 70%
- Production suppression rate (%) of p-Cresol [2]: 63%
- Generation of urine odor, sensory evaluation (result in words, FIG. 5) [3]: sensuously suppressed the generation of urine odor
